# Measured values reported in patent US7385039B2, “Methods and compositions for regulating imidazoline receptors” (priority 1998, dated 2008).
# “Also recorded” adds a separate entry of the source.
# How the values were obtained:
# I3R [1] = experiment: I3R model: insulin release from rat islets of Langerhans; assay type: cell-based; settings: for stimulation of insulin release (in words): rat islets
# Method: Islets of Langerhans from male Wistar rats were isolated by collagenase digestion in a medium of bicarbonate-buffered physiological saline solution containing 4 mM D-glucose and 1 mM CaCl2. Islets were selected under a binocular dissecting microscope and were used within two hours of isolation. Islets from humans were isolated from heart-beating cadaver organ donors by collagenase digestion and density gradient centrifugation (Chan, S. L. F., et al., 1997, Brit. J. Pharmacol. 120:926-932).
# Incubations were done in 96-well plates. Isolated islets were incubated in 100 μl buffer solution supplemented with bovine serum albumin in humidified air: CO2 (95:5%) at 37° C. in the presence of test agents. To eliminate any potential alpha-2 responses, yohimbine (10 μM), a potent alpha2-adrenergic blocker, was included in all incubations. After 60 min incubation, samples of medium were removed for measurement of insulin release by radioimmunoassay using anti-bovine insulin antiserum. Presence of insulin in the test media were compared to controls; positive differences represented amounts of insulin released. In reversal experiments, diazoxide (e.g., 200 μM) was pre-incubated to block glucose-induced insulin release. In these studies, test reagents were used to determine if they were capable of overcoming diazoxide's inhibitory effects on K+ ATP channels, a well known action of imidazoline secretagogues in islet cells. For example, efaroxan (an inhibitor of I-1 responses in adrenal medullary cells) is a well known I-3 agonist, i.e., it stimulates (at 100 μM) release of insulin and overcomes diazoxide inhibition thus illustrating again the dictomy between I1 and I3 receptor subtypes.
# I3R model: Insulin release from pancreas (Eglen, R. M., Hudson, A. L., Kendall, D. A., Nutt, D. J., Morgan, N. G., Wilson, V. G. & Dillon, M. P. (1998) TIPS 19, 381-390; Chan, S. L. F. (1998) Gen. Pharmacol. 31, 525-529; Morgan, N. G. (1999) Exp. Opin. Invest. Drugs 8, 575-584). Islets of Langerhans from male Wistar rats or human pancreata were isolated by collagenase digestion. Hand-picked islets were incubated in NaHCO3-buffered saline containing 1 mM CaCl2, 1 mg/ml BSA and test reagents. After incubation, insulin levels in supernatants were analyzed by RIA. The I3-blocker, KU-14R, served to verify I3R function.
# SH rats = experiment: Mean arterial pressure and heart rate after microinjection into the RVLM of rats; assay type: in vivo, rat
# Method: Effects of ribotide on mean arterial pressure (MAP) and heart rate (HR). Bilateral I-4-AA-RP microinjections (60 nl, 100 nmol) into the RVLM of SH rats were performed (Emsberger, P. & Haxhiu, M. A. (1997) Am. J. Physiol. 273, R1572-R1579) after the sympatho-excitatory area was confirmed by showing glutamate-induced MAP elevation ≧30 mm Hg. MAP and HR values were measured every 5 min. After each experiment, the injection site was marked by infusion of rhodamine microspheres. Changes were assessed relative to baseline values by two-way repeated measures ANOVA and Dunnett's test. A second group of SH rats (injection controls) received vehicle injections to control for injection effects and for volume artifacts due to multiple injections. Vehicle contained 2 nmol rilmenidine, a sub-threshold dose, far below that known to cause any detectable effect (Gomez, R. E., Emsberger, P., Feinland, G. & Reis, D. J. (1991) Eur. J. Pharmacol. 195, 181-191). In a follow-up study, SH rats (N=6) were given I-4-AA-RP then moxonidine. When used alone, it reduces MAP to normotensive levels (Emsberger, P., Elliott, H. L., Weimann, H.-J., Raap, A., Haxhiu, M. A., Hofferber, E., Low-Kroger, A., Reid, J. L. & Mest, H. J. (1993) Cardiovas. Drug Rev. 11, 411-431).
# Imidazoline I Sites = experiment: [125I]p-iodoclonidine competition binding to bovine RVLM membranes, imidazoline sites; settings: bovine RVLM membranes, [125I]PIC; read-out: K1 in RVLM, parallel assays
# Excerpt: Whole bovine brains and adrenal glands were obtained from a local slaughterhouse. Brains were immediately placed on a chilled glass plate, washed with ice-cold Krebs'-Henseleit buffer, and dissected. The rostral medulla was isolated by transecting the brainstem rostrally at the posterior margin of the trapezoid body and caudally 1 cm caudal to the obex. The pia-arachnoid was removed, and the lateral medulla was isolated by a sagittal section through the lateral margin of the pyramids, and then bisected. The ventral half was defined as the ventrolateral medulla (VLM). Brain samples were transported on ice to the laboratory and processed immediately.
# Fresh bovine VLM was homogenized by using a polytron (Tekmar Tissuemizer, setting 80 for 2×15 sec) in 20 volumes of ice-cold Hepes-buffered isotonic sucrose (pH brought to 7.4 with Tris base) containing the protease inhibitors (1,10)-phenanthroline (100 μM) and phenylmethylsulfonyl fluoride (50 μM) in order to inhibit degradation of receptor protein. Bovine adrenomedullary cells were homogenized in 15 ml Hepes-buffered isotonic sucrose by 10 strokes in a glass-glass hand-held homogenizer. All three homogenates were centrifuged at 1000×g for 5 min at 4° C. to remove nuclei and debris. The pellets (P1) were resuspended in 20 ml of homogenization buffer, and centrifuged again at 1000×g for 5 min. The combined supernatants were centrifuged at 48,000 g for 18 min at 4° C., and the resulting P2 pellet was resuspended in 10 to 25 volumes of 50 mM Tris-HCl buffer (pH 7.7) containing 5 mM EDTA. After recentrifugation at 48,000 g for 18 min, the resulting membrane pellet was resuspended in Tris-HCl containing 25 mM NaCl, preincubated for 30 min at 25° C., chilled on ice, centrifuged again, resuspended a final time in Tris-HCl alone, centrifuged, flash-frozen, and stored at −70° C. for up to three months.
# Radioligand binding assays with [^3H]clonidine or [^125I]p-iodoclonidine for determination of specific membrane binding to VLM and renal medulla imidazoline sites and α2-adrenergic receptors were performed by a modification of methods previously described (Ernsberger P. et al., 1997, J. Hypertension 1997, 15:S9-S23). Membranes were slowly thawed and resuspended in Tris-Hepes buffer (5.0 mM; pH 7.7 at 25° C., containing 0.5 mM EDTA, 0.5 mM EGTA, and 0.5 mM MgCl2) at a concentration of 1 mg protein/ml for the VLM, 4 mg protein/ml for the renal medulla, and 0.2 mg protein/ml for adrenomedullary cells. Assays were conducted in a total volume of 250 μl in polypropylene 96-well plates (Beckman Macrowell), and each well contained 125 μl membrane suspension, 25 μl radioligand, and 100 μl drug or vehicle. Incubations were initiated by the addition of membrane and were carried out for 30 min at 22° C. Nonspecific binding was defined in the presence of 10 μM BDF-6143, an imidazoline adrenergic agent. Specific α2-adrenergic binding was defined by inhibition with (−)epinephrine (0.1 mM). In experiments using catecholamines, all samples contained ascorbic acid in a final concentration of 0.001%. Incubations were terminated by vacuum filtration using a cell harvester (Brandel) equipped with Teflon tubing to reduce absorption of the radioligand over glass fiber filters (Schleicher & Schuell #34) which were preincubated for 4 h at 4° C. in 0.03% polyethylimine to reduce nonspecific binding to the filter. The filters were washed four times with 5 ml ice-cold Tris-HCl, placed in scintillation vials, covered with 4 ml scintillation cocktail (BioSafe II, Research Products International), and counted at 50% efficiency (Beckman LS5801). Protein was assayed by the bicinchoninic acid method.
# Data were obtained as dpm and transferred to the Equilibrium Binding Data Analysis (EBDA) program for initial processing; 4 to 10 experiments were analyzed simultaneously by using the LIGAND program for nonlinear curve-fitting. Protein assay data were also analyzed by nonlinear curve-fitting.
# Competition binding assays. […]
# I1R = I1R model: [3H]arachidonic acid release from PC-12 cells; assay type: cell-based
# Method: Assays for measuring imidazoline receptor-mediated arachidonic acid release from PC12 cells is as described in Ernsberger et al., (1995, FASEB J. 9:A114).
# I1R model: [^3H]Arachidonic acid (AA) release from PC-12 cells. Assays (Emsberger, P. (1998) J. Auton. Nerv. Syst. 72, 147-154 Ernsberger, P. (1998) J. Auton. Nerv. Syst. 72, 147-154) were done after a 30 min washout to attain a stable background. Cells were superfused with 0.01% BSA in Krebs buffer for seven 1-min fractions (baseline), then treated with 10 μM or 100 μM I-4-AA-RP alone, or together with efaroxan (10 μM), a prototypical I1-antagonist/I3-agonist. Controls included baseline release with vehicle alone (0-7 min) or vehicle containing efaroxan (5 min) before adding I-4-AA-RP. [^3H]products (>98% AA) collected in each 1-min fraction were expressed as fractional release defined as % total radioactivity incorporated into cells, corrected for [^3H]AA previously released (Ernsberger, P. (1998) J. Auton. Nerv. Syst. 72, 147-154).
# I3R [2] = settings: cited from earlier work
structure (smiles),measurement,setting,value
"O=C(O)Cc1cn([C@@H]2O[C@H](CO)[C@@H](O)[C@H]2O)cn1 [IAA-R, 1-(β-D-ribofuranosyl)-imidazole-4-acetic acid]",reversal of the inhibitory action of diazoxide on glucose-induced insulin release,I3R [1],able to reverse the inhibitory action of diazoxide
same,activity relative to IAA-RP's maximal activity on insulin release,"I3R [1]; paired experiment, pancreatic beta cells",< 50%
same,stimulation of insulin release (in words),I3R [1],potent stimulants of insulin release
same,change of heart rate (HR),"SH rats; SH rats, 100 nmol into RVLM",did not alter MAP or HR significantly
same,effect on MAP (in words),"SH rats; SH rats, 100 nmol into RVLM",did not alter MAP or HR significantly
same,Ki,Imidazoline I Sites,266 ± 48 µM
same,stimulation of [3H]AA release (in words),I1R; IAA-R 10 μM-1 mM,no significant response
"CCC1(c2ncc[nH]2)Cc2ccccc2O1 (centres unmarked) [KU-14R, reference compound]",blockade of IAA-RP-induced insulin secretion,"I3R [1]; KU-14R 100 μM, IAA-RP 1 μM, diazoxide 200 μM",abolished IAA-RP-induced secretion
"COc1nc(C)nc(Cl)c1N=C1NCCN1 [MOX, moxonidine, reference compound]",lowering of MAP,"SH rats; SH rats with IAA-RP-elevated MAP, 4 nmol, within 30 min",37.3±6.3%
same,reversal of IAA-RP's hypertensive effect,"SH rats; SH rats, 4 nmol microinjected",completely reversed IAA-RP's effect
"CCC1(C2=NCCN2)Cc2ccccc2O1 (centres unmarked) [efaroxan, reference compound]",concentration of maximal stimulation of insulin release,I3R [2],~100 µM
same,blockade of IAA-RP-induced [3H]AA release,"I1R; efaroxan 10 μM, before and throughout IAA-RP superfusion",abolished responses to IAA-RP; also recorded: blocked IAA-RP-induced release
"O=C(O)Cc1cncn1[C@@H]1O[C@H](CO)[C@@H](O)[C@H]1O [pros-IAA-R, 1-(β-D-ribofuranosyl)-imidazole-5-acetic acid]",reversal of the inhibitory action of diazoxide on glucose-induced insulin release,I3R [1],able to reverse the inhibitory action of diazoxide
same,stimulation of insulin release (in words),I3R [1],effects similar to or even greater than that seen with tele IAA-RP
